Results on 3 compounds are retold here after patent publication US20180346513A1, “METHOD FOR OBTAINING TUMOR PEPTIDES AND USES THEREOF” (ISTITUTO EUROPEO DI ONCOLOGIA S.R.L., priority 2015, published 2018).

For assay [1], the system named is mouse melanoma cell line B16. The assay can be described thus: Antibody response (total IgG, ELISA) to B16 after immunization with supernatant in IFA. It counts as in vivo, mice. The settings on record: B16 cells treated with inhibitor before supernatant collection. Here is the method: (§1) Mice were immunized subcutaneusly with 100 μL of emulsion with supernatant containing released peptides and either Freund's Complete Adjuvant (CFA) or Freund's Incomplete Adjuvant (IFA). Nine days after the immunization, mice were killed, popliteal lymph nodes were smashed and cells were plated in flat-bottom 96-well plates and stimulated with PPD (3 μg/mL), OVA protein (30 μg/mL), OVA peptide 323-339 (3 μg/mL) or OVA peptide 257-264 (3 μg/mL). After 72 hours, the supernatant was collected and IFN-γ production was measured by ELISA.
(§2) To evaluate antibody response mice were killed four weeks after immunization, and serum was collected. The antibody titer to Salmonella and B16 antigens was evaluated by ELISA.
(§3) In order to identify the type of released tumor antigens, C57BL/6J mice were immunized subcutaneously with supernatant obtained from Salmonella infected or uninfected B16 cells treated or not with the gap-junction blocker (heptanol) or the proteasome inhibitor (MG132), emulsified with Freund's Incomplete adjuvant (IFA). Four weeks later inventors evaluated the amount of total IgG specific to Salmonella SL3261AT and to mouse melanoma cell line B16 by ELISA.

The next assay relates to Salmonella SL3261AT. The assay can be described thus: Antibody response (total IgG, ELISA) to Salmonella after immunization with supernatant in IFA. It counts as in vivo, mice. The settings on record: B16 cells treated with inhibitor before supernatant collection. Here is the method: as §1, §2, §3
Background: ELISA stands for enzyme-linked immunosorbent assay.

Assay [2] concerns Mart-1 (26-35) specific CTLs. In words: IFN-gamma production of Mart-1 specific CTLs cocultured with moDCs or PDC loaded with supernatant. It counts as cell-based, human. Here is the method:
To generate peptide-specific CTLs from PBMC, 106 PBMC HLA-A2+ were cultured in 1 mL of RPMI 1640 medium (supplemented with 5% human serum, 2 mM L-Glutamine, 100 U/mL Penicillin, 100 μg/mL Streptomycin, 10 μg/mL Gentamicin, 10 μg/mL beta-mercaptoethanol and 1% nonessential amino acids) in 24-well-plates. To this, 2×106 Mart-1-pulsed and irradiated (10 Gy) PBMC (HLA-A2) were added as antigen presenting cells in the same medium supplemented with 100 U/mL IL-2. To pulse PBMC they were incubated for 90 minutes at 37° C. in RPMI supplemented with 50 μM of peptide. After incubation, cell were washed twice and irradiated before mixing with the responding cells. The cells were stimulated at intervals of 10 days with irradiated peptide-pulsed autologous PBMC and 100 U/mL IL-2.
To evaluate the release of antigenic peptides inventors infected human melanoma cells SKmel24 and 624.38 with Salmonella TY21a in presence or not of heptanol and the supernatant was harvested as described in Materials and Methods.
After 72 hours of coculture, the amount of IFN-gamma secretion was measured by ELISA.

The target of assay [3] is T1, connexin hemichannels on the surface of melanoma cells (Mus musculus, UniProt P23242).
T1 construct: opening of connexin hemichannels on the surface of melanoma cells; endogenous in cells; host or cells: B16 and B16 OVA mouse melanoma cells
T1 sequence (P23242 2-382): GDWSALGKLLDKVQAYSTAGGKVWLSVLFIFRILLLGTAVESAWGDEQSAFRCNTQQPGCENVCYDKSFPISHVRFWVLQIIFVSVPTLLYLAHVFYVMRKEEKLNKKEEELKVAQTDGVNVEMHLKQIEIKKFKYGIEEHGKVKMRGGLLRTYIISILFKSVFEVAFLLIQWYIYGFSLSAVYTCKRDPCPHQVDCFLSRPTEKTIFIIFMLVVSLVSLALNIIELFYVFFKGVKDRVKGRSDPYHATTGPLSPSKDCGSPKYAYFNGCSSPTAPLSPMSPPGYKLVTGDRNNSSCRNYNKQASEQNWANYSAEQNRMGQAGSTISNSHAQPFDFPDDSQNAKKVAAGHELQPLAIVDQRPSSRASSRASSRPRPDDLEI
In words: Adenosine 5'-triphosphate (ATP) bioluminescent assay, extracellular ATP of B16 and B16 OVA cells. It counts as cell-based. The settings on record: B16 and B16 OVA cells pretreated with heptanol (1 mM). Here is the method: Single bacterial colonies were grown overnight and restarted the next day to reach an absorbance at 600 nm ranging between 0.550 and 0.650 corresponding to 0,550-0,650×10^9 colony—forming units (CFUs)/mL. Tumor cells were incubated with or without Gap Junctions blocker, Heptanol (1 mM) for 1 hour and half at 37° C. Then, cells were incubated with bacteria for 1 hour and half at 37° C. at a cell-to-bacteria ratio of 1:50, in the appropriate medium without antibiotics. After incubation, the cells were washed and incubated at 37° C. in medium supplemented with gentamicin ([…]) for 2 hours. […]
Adenosine 5′-triphosphate (ATP) Biolumescent Assay (CellTiter-Glo Luminescent cell viability Assay, Promega) allow to measure the quantity of ATP containing in the samples. […]
Briefly, 100 μL of Assay Mix solution were added to a reaction vial for 3 minutes at room temperature; then rapidly were added […] of sample diluent, mixed and immediately measured the amount of light produced. […]
In order to assess whether Salmonella is able to stimulate the opening of connexin hemichannels on the surface of melanoma cells, inventors measured ATP extracellular concentration using an adenosine 5′-thriphosfate (ATP) bioluminescent assay (as described in Materials and Methods) in Salmonella treated B16 cells. […]

Assay [4] concerns MHC class I complex on the surface of T2 cells. The assay can be described thus: T2 assay for peptide binding (stabilization of HLA-A0201 on T2 cells). It counts as cell-based, human. The settings on record: tumor cells treated with the gap junction blocker before infection.
Procedure: The next day, the cells were washed with FACS buffer (PBS, 0.1% sodium azide, 5% fetal bovin serum) and incubated for 10 min with blocking buffer (200 μg/mL mouse IgG in FACS buffer). Then, the cells were incubated for 20 minutes at +4° C. with BB7.2, an HLA-A2 conformation specific mouse antibody. The cells were washed twice with FACS buffer and fixed in paraformaldehyde for later acquisition by Accuri C6 Flow Cytometer (BD).
In order to investigate the release of MHC class I peptides by Salmonella infected tumor cells, inventors exploited the ability of exogenous peptides to stabilize the MHC class I complex on the surface of T2 cells. T2 are an HLA-A0201 hybrid human cell line lacking TAP-2 (transporter-associated with antigen processing) and consequently are defective in loading class I molecules with antigenic peptides generated in the cytosol. This leads to very unstable MHC class I molecules on the cell surface. […]
Briefly, inventors infected human melanoma cells SKmel-24 and colorectal adenocarcinoma cells HT29, with Vivofit®, an oral typhoid vaccine that contains live, attenuated cells of the bacteria Salmonella enterica serovar Thyphi (TY21a), and inventors collected the supernatant as described in Materials and Methods. […] Surface expression of HLA-A0201 was evaluated using a conformation-specific mouse antibody, as described in Materials and Methods.
Another assay has as its system C57BL/6J mice. In words: In vivo immunization with supernatant in CFA, IFN-gamma after in vitro recall of lymph node cells. The settings on record: B16 OVA cells treated with heptanol.

Where a SMILES comes first, the peptide text is derived from it. The star is where a group is joined. Cbz = O=C(OCc1ccccc1)*

Procedure for C57BL/6J mice: Mice were immunized subcutaneusly with 100 μL of emulsion with supernatant containing released peptides and either Freund's Complete Adjuvant (CFA) or Freund's Incomplete Adjuvant (IFA). […] After 72 hours, the supernatant was collected and IFN-γ production was measured by ELISA.
To investigate whether the tumor peptides released from infected tumor cells could induce an in vivo immune response, C57BL/6J mice were immunized in the footpad with supernatant, obtained from B16 OVA cells infected or not with Salmonella SL3261AT, emulsified with Freund's complete adjuvant (CFA).
Briefly, nine days after immunization, the popliteal lymph nodes were removed and cells were stimulated in vitro with PPD (Tuberculin purified protein derivated), as a positive control, and OVA protein. After 72 hours of incubation, the amount of IFN-gamma secretion was assessed by ELISA to evaluate the activation of immune cells.

For `CC(C)C[C@@H](C=O)NC(=O)[C@H](CC(C)C)NC(=O)[C@H](CC(C)C)NC(=O)OCc1ccccc1` [MG132] (Cbz-Leu-Leu-Leu-aldehyde), the “Effect on antibody response to B16 tumor peptides” value in assay [1] was “reduced”. The “Effect on antibody response to Salmonella antigens” value in the assay with Salmonella SL3261AT is “reduced”.

With “Mart-1 (26-35): Mart-1 (26-35) peptide, positive control”, in assay [2] (exogenous addition to blocker-treated condition), the “Response of CTLs after exogenous addition of peptide” value was “restored completely the response”.

Turning to `CCCCCCCO` [heptanol], the “Effect on Salmonella-induced release of extracellular ATP” value in assay [3] is recorded as “significantly reduced”. Also, in assay [4], the “Effect on the MFI increase by supernatant of infected tumor cells” value is “abolished”. Also, the “Effect on antibody response to B16 tumor peptides” value in assay [1] is reported as “reduced”. Besides, the “Effect on antibody response to Salmonella antigens” value in the assay with Salmonella SL3261AT was “reduced”. Besides, in assay [2] (tumor cells treated with the gap junction blocker), the “Effect on CTL activation by supernatant of infected melanoma cells” value is given as “significantly inhibits”. In the assay on C57BL/6J mice, the “Effect on IFN-gamma production induced by supernatant immunization” value is “reduced”.
